From ChEMBL document CHEMBL1201862, “PubChem BioAssay data set” (2004)
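Interpolation was linear, between the two tested concentrations surrounding the appropriate level; five concentrations were tested over 48 hours in 96-well plates. GI50 marks 50% less growth.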 Calls of active or inactive are those of the source. No stated cut-off is given here; in the data, active = GI50 up to about 1.1 µM and inactive = higher.

Experiments:
Assay in all cases: DTP human tumour cell line panel, 48 h
HT-29 = tested on: HT-29
SF-268 = tested on: SF-268
DU-145 = tested on: DU-145
IGROV-1 = tested on: IGROV-1
SK-MEL-2 = tested on: SK-MEL-2
HCT-15 = tested on: HCT-15
OVCAR-5 = tested on: OVCAR-5
RXF 393 = tested on: RXF 393
SN12C = tested on: SN12C
PC-3 = tested on: PC-3
EKVX = tested on: EKVX
HL-60 = tested on: HL-60
RPMI-8226 = tested on: RPMI-8226
ACHN = tested on: ACHN
SR = tested on: SR
MOLT-4 = tested on: MOLT-4
A549 = tested on: A549
HCC 2998 = tested on: HCC 2998
SNB-75 = tested on: SNB-75

Row | Structure (SMILES) | GI50 (HT-29) | GI50 (SF-268) | GI50 (DU-145) | GI50 (IGROV-1) | GI50 (SK-MEL-2) | GI50 (HCT-15) | GI50 (OVCAR-5) | GI50 (RXF 393) | GI50 (SN12C) | GI50 (PC-3) | GI50 (EKVX) | GI50 (HL-60) | GI50 (RPMI-8226) | GI50 (ACHN) | GI50 (SR) | GI50 (MOLT-4) | GI50 (A549) | GI50 (HCC 2998) | GI50 (SNB-75)
1 | CC[N+]1(C)CCC(O)(c2ccc(C)cc2)C(C(=O)c2ccc(C)cc2)C1 (centres undefined) | 42.7 µM (inactive) | 34.8 µM (inactive) | > 100 µM (inactive) | > 100 µM (inactive) | > 100 µM (inactive) | 21.7 µM | 31 µM (inactive) | 35.4 µM (inactive) | > 100 µM (inactive) | > 100 µM (inactive) | > 100 µM (inactive) | 56.8 µM (inactive) | 10.9 µM (inactive) | 23.3 µM (inactive) | 16.2 µM (inactive) | 23.6 µM (inactive) | > 100 µM (inactive) | > 100 µM (inactive) | –
2 | COC(=O)CC(SCCO)SCCO | > 100 µM (inactive) | > 100 µM (inactive) | > 100 µM (inactive) | > 100 µM (inactive) | – | – | > 100 µM (inactive) | > 100 µM (inactive) | > 100 µM (inactive) | > 100 µM (inactive) | > 100 µM (inactive) | > 100 µM (inactive) | > 100 µM (inactive) | > 100 µM (inactive) | > 100 µM (inactive) | > 100 µM (inactive) | > 100 µM (inactive) | > 100 µM (inactive) | 75.7 µM (inactive)
3 | CC(C)(C)c1cc(C2NC(=O)NC2=O)cc(C(C)(C)C)c1O (centres undefined) | 46.5 µM (inactive) | 64.6 µM (inactive) | > 100 µM (inactive) | > 100 µM (inactive) | > 100 µM (inactive) | 93.3 µM | > 100 µM (inactive) | 33.3 µM (inactive) | – | 71.9 µM (inactive) | > 100 µM (inactive) | – | 66.5 µM (inactive) | > 100 µM (inactive) | 28.8 µM (inactive) | 39.5 µM (inactive) | 96.8 µM (inactive) | – | 29.4 µM (inactive)
4 | CCN(C(C)=O)c1cnc(/C=N/NC(N)=S)c2ccccc12 | 3.49 µM (inactive) | 1.58 µM (inactive) | 2.06 µM (inactive) | 2.76 µM (inactive) | – | 2.25 µM | > 20 µM (inactive) | 17.9 µM (inactive) | 3.21 µM (inactive) | 4.15 µM (inactive) | 4.29 µM (inactive) | 1.77 µM (inactive) | 3.08 µM (inactive) | 1.76 µM (inactive) | 0.631 µM (active) | 1.96 µM (inactive) | 4.01 µM (inactive) | 11 µM (inactive) | 18.7 µM (inactive)
5 | O=C1C(/N=N/c2ccc(-c3nc4ccccc4o3)cc2)NC(=S)N1c1ccccc1 (centres undefined) | > 100 µM (inactive) | > 100 µM (inactive) | 37.4 µM (inactive) | 57.3 µM (inactive) | > 100 µM (inactive) | 62.8 µM | > 100 µM (inactive) | 83.8 µM (inactive) | 0.692 µM (active) | > 100 µM (inactive) | 49.3 µM (inactive) | 0.13 µM (active) | – | > 100 µM (inactive) | 28.5 µM (inactive) | 34.7 µM (inactive) | > 100 µM (inactive) | > 100 µM (inactive) | 62.4 µM (inactive)
6 | N#Cc1ccc(OCc2ccc3nc(-c4ccccc4)c(Cl)nc3c2)cc1 | > 100 µM (inactive) | > 100 µM (inactive) | > 100 µM (inactive) | > 100 µM (inactive) | > 100 µM (inactive) | > 100 µM | > 100 µM (inactive) | – | > 100 µM (inactive) | > 100 µM (inactive) | > 100 µM (inactive) | > 100 µM (inactive) | > 100 µM (inactive) | 43.6 µM (inactive) | > 100 µM (inactive) | > 100 µM (inactive) | > 100 µM (inactive) | > 100 µM (inactive) | > 100 µM (inactive)
7 | O=C(Nc1nc(C23CC4CC(CC(C4)C2)C3)cs1)c1cc2c(ccc3ccccc32)oc1=O | > 100 µM (inactive) | > 100 µM (inactive) | > 100 µM (inactive) | > 100 µM (inactive) | – | > 100 µM | > 100 µM (inactive) | – | > 100 µM (inactive) | > 100 µM (inactive) | > 100 µM (inactive) | > 100 µM (inactive) | > 100 µM (inactive) | > 100 µM (inactive) | > 100 µM (inactive) | > 100 µM (inactive) | > 100 µM (inactive) | > 100 µM (inactive) | –
8 | CCOC(=O)c1csc(C(CSCc2ccc(OC)cc2)N2C(=O)c3ccccc3C2=O)n1 (centres undefined) | 87.7 µM (inactive) | > 100 µM (inactive) | > 100 µM (inactive) | > 100 µM (inactive) | – | 62.7 µM | > 100 µM (inactive) | > 100 µM (inactive) | > 100 µM (inactive) | > 100 µM (inactive) | > 100 µM (inactive) | 33.7 µM (inactive) | 38 µM (inactive) | > 100 µM (inactive) | 26.5 µM (inactive) | 31.5 µM (inactive) | > 100 µM (inactive) | > 100 µM (inactive) | –
9 | N#Cc1c(N)nc(-c2ccc(Cl)cc2)c2c1-c1ccccc1S(=O)(=O)CC2 | > 100 µM (inactive) | 53.6 µM (inactive) | 74.5 µM (inactive) | > 100 µM (inactive) | > 100 µM (inactive) | > 100 µM | > 100 µM (inactive) | – | 53.7 µM (inactive) | > 100 µM (inactive) | – | – | > 100 µM (inactive) | > 100 µM (inactive) | 56.4 µM (inactive) | – | > 100 µM (inactive) | > 100 µM (inactive) | > 100 µM (inactive)
10 | CCOC(=O)Oc1ccc2c(c1)c(=O)c1c(NCCCN(CC)CC)ccc3nnn2c31 | 2.55 µM (inactive) | 11.6 µM (inactive) | 0.951 µM (active) | 5.36 µM (inactive) | 16.2 µM (inactive) | 3.09 µM | 16.6 µM (inactive) | 1.81 µM (inactive) | 3.67 µM (inactive) | 0.303 µM (active) | 10.7 µM (inactive) | – | 2.17 µM (inactive) | 0.82 µM (active) | 1.57 µM (inactive) | 0.745 µM (active) | 1.64 µM (inactive) | 1.43 µM (inactive) | –
11 | C=C1C(=O)O[C@H]2C(=O)[C@H](C)CCC/C(C)=C/CC[C@@]3(C)O[C@@H]3C[C@@H]12 | 1.9 µM (inactive) | 4.54 µM (inactive) | 2.56 µM (inactive) | 2.76 µM (inactive) | 5.26 µM (inactive) | 1.56 µM | 5.6 µM (inactive) | – | 5.53 µM (inactive) | 6.76 µM (inactive) | – | 2.72 µM (inactive) | 2.25 µM (inactive) | 1.34 µM (inactive) | 2.45 µM (inactive) | 1.61 µM (inactive) | 5.82 µM (inactive) | – | –
12 | CCCCCCCCCCCCO[PH](=O)OCCCCCCCCCCCC | > 100 µM (inactive) | > 100 µM (inactive) | > 100 µM (inactive) | > 100 µM (inactive) | > 100 µM (inactive) | > 100 µM | > 100 µM (inactive) | > 100 µM (inactive) | > 100 µM (inactive) | > 100 µM (inactive) | > 100 µM (inactive) | > 100 µM (inactive) | > 100 µM (inactive) | > 100 µM (inactive) | – | > 100 µM (inactive) | > 100 µM (inactive) | > 100 µM (inactive) | > 100 µM (inactive)
13 | C=CCn1c(=O)c2ccccc2[n+]2c(C)c(C(=O)OCC)sc12 | > 100 µM (inactive) | > 100 µM (inactive) | > 100 µM (inactive) | > 100 µM (inactive) | > 100 µM (inactive) | > 100 µM | > 100 µM (inactive) | > 100 µM (inactive) | > 100 µM (inactive) | > 100 µM (inactive) | > 100 µM (inactive) | > 100 µM (inactive) | > 100 µM (inactive) | > 100 µM (inactive) | > 100 µM (inactive) | > 100 µM (inactive) | > 100 µM (inactive) | > 100 µM (inactive) | –
14 | COc1ccc2c(c1)CCN1CCc3ccccc3CC21 (centres undefined) | 27.8 µM (inactive) | 24.8 µM (inactive) | 65.2 µM (inactive) | 56.5 µM (inactive) | 57.3 µM (inactive) | 48.2 µM | 30.3 µM (inactive) | – | 73.5 µM (inactive) | 30 µM (inactive) | > 100 µM (inactive) | 16.8 µM (inactive) | 19.1 µM (inactive) | 45 µM (inactive) | 35.2 µM (inactive) | 35 µM (inactive) | 49.7 µM (inactive) | 21.2 µM (inactive) | 30.2 µM (inactive)
15 | CNNC1=NS(=O)(=O)c2cc(C#N)c(Cl)cc2S1 | > 10 µM (inactive) | > 10 µM (inactive) | > 10 µM (inactive) | > 10 µM (inactive) | > 10 µM (inactive) | > 10 µM | > 10 µM (inactive) | > 10 µM (inactive) | > 10 µM (inactive) | > 10 µM (inactive) | > 10 µM (inactive) | > 10 µM (inactive) | > 10 µM (inactive) | > 10 µM (inactive) | – | > 10 µM (inactive) | > 10 µM (inactive) | > 10 µM (inactive) | > 10 µM (inactive)
16 | COc1ccc(S(=O)(=O)N2C(=O)CCC2C(=O)NN)cc1 (centres undefined) | > 100 µM (inactive) | – | > 100 µM (inactive) | > 100 µM (inactive) | > 100 µM (inactive) | > 100 µM | > 100 µM (inactive) | – | > 100 µM (inactive) | > 100 µM (inactive) | > 100 µM (inactive) | > 100 µM (inactive) | > 100 µM (inactive) | > 100 µM (inactive) | > 100 µM (inactive) | > 100 µM (inactive) | > 100 µM (inactive) | > 100 µM (inactive) | > 100 µM (inactive)
